What was measured:
[1] = target: hα6 + codon optimized hβ2 + hβ3^V9’S nAChR (Homo sapiens, UniProt P17787+Q15825); details: 100 μM nicotine
Method: (§1) We planned to introduce identical amounts of cRNA, presumably producing equal amounts of each subunit protein, into oocytes largely due to lack of information about the levels of mRNA for each subunits that compose α6*-nAChRs in neurons or other cells. Concentrations of cRNAs for each nAChR α and β subunits (WT, mutant or variant) were adjusted to 500 ng μL^−1. We provisionally assumed that hα6 or its variants in association with hβ2 or hβ4 subunits would form complexes having 2:3 and/or 3:2 ratios of the indicated subunits and that oocytes also injected with WT or mutant form of β3 subunits (i.e., β3^V9’S) would express nAChR with 2:2:1 ratios of α:β:(β3 or β3^V9’S) subunits. For expression of binary nAChRs (i.e., two subunit containing nAChRs; α + β but not β3) cRNA mixtures were prepared by mixing 1 μL of cRNA for each subunit and an additional μL of RNAse free water (i.e., total volume 3 μL). Similarly for expression of ternary nAChRs [i.e., three subunit containing nAChRs; (α + β) + (β3 or β3^V9’S)] cRNA mixtures were prepared by mixing 1 μL of cRNA for each subunit. Several preparations of each mixture were prepared and stored at −80°C until further use. Injection of 138 nL of cRNA, out of 3 μL cRNA mixtures, into each oocyte would deliver ~23 ng of cRNA for each subunit whether binary or ternary nAChRs are expressed.
(§2) Two to 5 days after injection, oocytes were placed in a small-volume chamber and continuously perfused with OR2. The chamber was grounded through an agarose bridge. The oocytes were voltage-clamped at −70 mV (unless otherwise noted) to measure agonist or antagonist induced currents using Axoclamp 900A and pClamp 10.2 software (Molecular Devices, Sunnyvale, CA). The current signal was low-pass filtered at 10 Hz with the built-in low-pass Bessel filter in the Axoclamp 900A and digitized at 20 Hz with Axon Digidata1440A and pClamp10. […] Drugs (agonists and antagonists) were prepared daily in OR2. Drug was applied using a Valvelink 8.2 perfusion system (Automate scientific, Berkeley, CA). […] Then for the purpose of comparison electrophysiological recordings were performed in a given day in a given batch of oocytes following the same order of injections. […] All hβ4*-nAChR recordings were done in similar conditions to facilitate comparisons between hα6hβ4- and hα6hβ4hβ3-nAChRs. All electrophysiological measurements were conducted or checked in at least two batches of oocytes.
(§3) Raw data was collected and processed in part using pClamp 10.2 (Molecular Devices, Sunnyvale, CA), Origin 7.5 (OriginLab Corporation, Northampton, MA) and a spreadsheet (Excel; Microsoft, Bellevue, WA). Peak current amplitudes (Imax) are reported as mean ± SEM (for results from at least three oocytes, i.e., n = 3).

[2] = target: hα6(N171K) + WT hβ2 + hβ3^V9’S nAChR (Homo sapiens, UniProt P17787+Q15825, N171K); details: nicotine
Method: as §1, §2, §3

[3] = target: hα6(S43P) + hβ4 + hβ3 nAChR (Homo sapiens, UniProt P30926+Q15825, S43P); details: 100 μM nicotine; oocytes clamped at −70 mV
Method: as §1, §2, §3

[4] = target: hα6(S43P) + codon optimized hβ2 + hβ3^V9’S nAChR (Homo sapiens, UniProt P17787+Q15825, S43P); details: 100 μM nicotine; oocytes clamped at −70 mV
hα6(S43P) + codon optimized hβ2 + hβ3^V9’S nAChR, sequence (Q15825 26-494 S43P): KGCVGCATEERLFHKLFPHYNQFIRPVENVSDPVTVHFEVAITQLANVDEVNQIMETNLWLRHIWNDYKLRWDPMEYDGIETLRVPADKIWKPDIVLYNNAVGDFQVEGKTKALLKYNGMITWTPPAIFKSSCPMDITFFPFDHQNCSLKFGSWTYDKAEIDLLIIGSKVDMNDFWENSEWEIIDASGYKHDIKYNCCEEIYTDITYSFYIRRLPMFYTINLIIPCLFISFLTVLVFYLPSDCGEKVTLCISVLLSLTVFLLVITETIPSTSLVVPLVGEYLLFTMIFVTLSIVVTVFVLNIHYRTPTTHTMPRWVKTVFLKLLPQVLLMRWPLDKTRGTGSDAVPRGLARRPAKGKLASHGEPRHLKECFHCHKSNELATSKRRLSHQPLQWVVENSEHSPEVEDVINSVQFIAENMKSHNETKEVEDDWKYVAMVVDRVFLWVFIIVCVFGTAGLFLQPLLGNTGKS
hα6(S43P) + codon optimized hβ2 + hβ3^V9’S nAChR, sequence (P17787 26-502): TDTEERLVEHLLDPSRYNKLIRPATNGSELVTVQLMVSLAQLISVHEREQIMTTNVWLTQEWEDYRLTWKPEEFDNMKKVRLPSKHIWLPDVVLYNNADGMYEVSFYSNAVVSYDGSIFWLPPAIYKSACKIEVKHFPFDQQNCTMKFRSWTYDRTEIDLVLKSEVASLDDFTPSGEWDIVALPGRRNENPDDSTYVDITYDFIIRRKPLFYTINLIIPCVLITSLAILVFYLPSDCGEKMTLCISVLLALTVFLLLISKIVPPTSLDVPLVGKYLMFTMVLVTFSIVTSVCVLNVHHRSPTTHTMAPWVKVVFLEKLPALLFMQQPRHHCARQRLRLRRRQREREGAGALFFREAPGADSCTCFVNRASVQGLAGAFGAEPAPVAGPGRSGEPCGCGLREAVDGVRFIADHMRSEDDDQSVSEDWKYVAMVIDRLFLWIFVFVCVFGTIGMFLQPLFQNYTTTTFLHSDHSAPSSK
hα6(S43P) + codon optimized hβ2 + hβ3^V9’S nAChR, sequence (Q05901 25-458 V273S partner limits assumed): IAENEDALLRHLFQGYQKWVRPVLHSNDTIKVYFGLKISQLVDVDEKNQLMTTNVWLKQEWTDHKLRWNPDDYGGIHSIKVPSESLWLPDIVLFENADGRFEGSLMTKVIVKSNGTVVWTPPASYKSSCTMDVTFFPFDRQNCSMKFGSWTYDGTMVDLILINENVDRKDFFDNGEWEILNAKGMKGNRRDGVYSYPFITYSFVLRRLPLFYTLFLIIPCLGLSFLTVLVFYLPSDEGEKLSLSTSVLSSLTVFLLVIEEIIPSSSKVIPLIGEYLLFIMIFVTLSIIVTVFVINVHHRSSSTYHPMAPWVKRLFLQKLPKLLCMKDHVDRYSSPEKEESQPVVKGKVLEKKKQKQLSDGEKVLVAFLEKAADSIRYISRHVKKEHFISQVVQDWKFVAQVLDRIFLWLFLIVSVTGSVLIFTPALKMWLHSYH
Method: as §1, §2, §3

[5] = target: hα6(D92E) + codon optimized hβ2 + hβ3^V9’S nAChR (Homo sapiens, UniProt P17787+Q15825, D92E); details: 100 μM nicotine; oocytes clamped at −70 mV
Method: as §1, §2, §3

hα6(N203T) + hβ4 nAChR = hα6(N203T) + hβ4 nAChR (Homo sapiens, UniProt P30926+Q15825, N203T); details: 100 μM nicotine; oocytes clamped at −70 mV
Method: as §1, §2, §3

hα6(S43P) + hβ4 nAChR = hα6(S43P) + hβ4 nAChR (Homo sapiens, UniProt P30926+Q15825, S43P); details: 100 μM nicotine; oocytes clamped at −70 mV
hα6(S43P) + hβ4 nAChR, sequence (Q15825 26-494 S43P): as the sequence (Q15825 26-494 S43P) above
hα6(S43P) + hβ4 nAChR, sequence (P30926 22-498): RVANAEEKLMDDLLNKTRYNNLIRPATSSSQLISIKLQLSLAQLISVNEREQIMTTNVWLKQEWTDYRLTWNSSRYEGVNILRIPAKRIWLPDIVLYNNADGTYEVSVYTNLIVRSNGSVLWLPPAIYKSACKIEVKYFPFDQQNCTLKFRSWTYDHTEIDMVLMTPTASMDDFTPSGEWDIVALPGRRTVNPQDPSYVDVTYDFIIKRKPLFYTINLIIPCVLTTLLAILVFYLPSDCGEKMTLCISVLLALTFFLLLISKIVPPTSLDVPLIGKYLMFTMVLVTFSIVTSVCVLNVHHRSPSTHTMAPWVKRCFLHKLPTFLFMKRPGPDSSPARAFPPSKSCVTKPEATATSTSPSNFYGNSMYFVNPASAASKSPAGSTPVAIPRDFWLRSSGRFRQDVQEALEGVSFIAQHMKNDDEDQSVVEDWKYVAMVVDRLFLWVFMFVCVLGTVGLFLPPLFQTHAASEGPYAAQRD
Method: as §1, §2, §3

hα6(I226T) + hβ4 nAChR = hα6(I226T) + hβ4 nAChR (Homo sapiens, UniProt P30926+Q15825, I226T); details: 100 μM nicotine; oocytes clamped at −70 mV
hα6(I226T) + hβ4 nAChR, sequence (Q15825 26-494 I226T): as the sequence (Q15825 26-494 S43P) above, with P18S, I201T counted along it
hα6(I226T) + hβ4 nAChR, sequence (P30926 22-498): as the sequence (P30926 22-498) above
Method: as §1, §2, §3

[6] = target: hα6(D199Y) + codon optimized hβ2 + hβ3^V9’S nAChR (Homo sapiens, UniProt P17787+Q15825, D199Y); details: 100 μM nicotine; oocytes clamped at −70 mV
Method: as §1, §2, §3

[7] = target: hα6(R96H) + codon optimized hβ2 + hβ3^V9’S nAChR (Homo sapiens, UniProt P17787+Q15825, R96H); details: 100 μM nicotine; oocytes clamped at −70 mV
Method: as §1, §2, §3

[8] = target: hα6(S156R) + hβ4 + hβ3 nAChR (Homo sapiens, UniProt P30926+Q15825, S156R); details: nicotine
Method: as §1, §2, §3

[9] = target: hα6(R87C) + hβ4 + hβ3 nAChR (Homo sapiens, UniProt P30926+Q15825, R87C); details: nicotine
Method: as §1, §2, §3

[10] = target: hα6(S43P) + WT hβ2 + hβ3^V9’S nAChR (Homo sapiens, UniProt P17787+Q15825, S43P); details: nicotine
Method: as §1, §2, §3

[11] = target: hα6(A184D) + codon optimized hβ2 + hβ3^V9’S nAChR (Homo sapiens, UniProt P17787+Q15825, A184D); details: 100 μM nicotine; oocytes clamped at −70 mV
Method: as §1, §2, §3

[12] = target: hα6(N203T) + codon optimized hβ2 + hβ3^V9’S nAChR (Homo sapiens, UniProt P17787+Q15825, N203T); details: 100 μM nicotine; oocytes clamped at −70 mV
Method: as §1, §2, §3

[13] = target: hα6(E101K) + codon optimized hβ2 + hβ3^V9’S nAChR (Homo sapiens, UniProt P17787+Q15825, E101K); details: 100 μM nicotine; oocytes clamped at −70 mV
Method: as §1, §2, §3

[14] = target: hα6(E101K) + hβ4 + hβ3 nAChR (Homo sapiens, UniProt P30926+Q15825, E101K); details: 100 μM nicotine; oocytes clamped at −70 mV
Method: as §1, §2, §3

hα6 + codon optimized hβ2 + hβ3^V9’S nAChR, sequence (Q15825 26-494): as the sequence (Q15825 26-494 S43P) above, with P18S counted along it
hα6 + codon optimized hβ2 + hβ3^V9’S nAChR, sequence (P17787 26-502): as the sequence (P17787 26-502) above
hα6 + codon optimized hβ2 + hβ3^V9’S nAChR, sequence (Q05901 22-458 V273S partner): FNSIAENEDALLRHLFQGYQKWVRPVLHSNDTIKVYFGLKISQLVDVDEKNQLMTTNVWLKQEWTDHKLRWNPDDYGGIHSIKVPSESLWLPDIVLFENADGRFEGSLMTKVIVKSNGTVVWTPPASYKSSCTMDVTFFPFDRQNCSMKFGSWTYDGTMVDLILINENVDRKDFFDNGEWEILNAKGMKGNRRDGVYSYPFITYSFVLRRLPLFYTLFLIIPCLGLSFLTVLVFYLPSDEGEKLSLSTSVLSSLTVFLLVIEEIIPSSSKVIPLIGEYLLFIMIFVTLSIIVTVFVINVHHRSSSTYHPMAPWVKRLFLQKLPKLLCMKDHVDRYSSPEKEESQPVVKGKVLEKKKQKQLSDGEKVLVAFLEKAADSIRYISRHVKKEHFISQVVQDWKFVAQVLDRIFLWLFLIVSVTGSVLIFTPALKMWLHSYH

CN1CCC[C@H]1c1cccnc1 [nicotine, L-nicotine]
current response relative to receptor with WT hβ2 ([1]; codon optimized vs. WT hβ2): ~ 31 fold
peak current (Imax, mean ± SE) ([1]; oocytes clamped at −70 mV): 469 ± 75 nA
current response [2]: did not yield current responses
Mean (±SE) peak current response [3]: 208 ± 22 nA
peak current (Imax, mean ± SE) [4]: 47 ± 9 nA
peak current (Imax, mean ± SE) [5]: 66 ± 20 nA
peak current (Imax, mean ± SE) (hα6(N203T) + hβ4 nAChR): 33 ± 3 nA
peak current (Imax, mean ± SE) (hα6(S43P) + hβ4 nAChR): 39 ± 5 nA
peak current (Imax, mean ± SE) (hα6(I226T) + hβ4 nAChR): 81 ± 10 nA
peak current (Imax, mean ± SE) [6]: 2076 ± 68 nA
peak current (Imax, mean ± SE) [7]: 1075 ± 175 nA
current response [8]: did not elicit current responses
current response [9]: did not elicit current responses
current response [10]: did not yield current responses
peak current (Imax, mean ± SE) [11]: 616 ± 95 nA
peak current (Imax, mean ± SE) [12]: 762 ± 253 nA
peak current (Imax, mean ± SE) [13]: 551 ± 156 nA
Mean (±SE) peak current response [14]: 467 ± 54 nA
